Here are results for three compounds from patent US9957247B2, “SecA inhibitors and methods of making and using thereof” (Georgia State University Research Foundation, Inc., priority 2012, dated 2018).

For orientation: pIC50 means −log10 of the IC50, conventionally taken in molar units.

In assay [1] the target is T1, BsSecA (Bacillus subtilis, UniProt P28366). The assay is described as follows: cell-based. On the set-up: species or system B. subtilis. The note with it: Ion channel, IC50, BsSecA, Table 5.
Assay [2] relates to B. subtilis 168. Description: Bacteriostatic effect, liquid microdilution, B. subtilis 168. The note with it: Bacillus subtilis, Example 2. The assay is classed as cell-based.
Assay [3] has as its system EcSecA.
The target of assay [4] is T2, EcSecA (Escherichia coli, UniProt P10408). The assay is described as follows: cell-based.
Target sequence in this assay (P10408 whole entry): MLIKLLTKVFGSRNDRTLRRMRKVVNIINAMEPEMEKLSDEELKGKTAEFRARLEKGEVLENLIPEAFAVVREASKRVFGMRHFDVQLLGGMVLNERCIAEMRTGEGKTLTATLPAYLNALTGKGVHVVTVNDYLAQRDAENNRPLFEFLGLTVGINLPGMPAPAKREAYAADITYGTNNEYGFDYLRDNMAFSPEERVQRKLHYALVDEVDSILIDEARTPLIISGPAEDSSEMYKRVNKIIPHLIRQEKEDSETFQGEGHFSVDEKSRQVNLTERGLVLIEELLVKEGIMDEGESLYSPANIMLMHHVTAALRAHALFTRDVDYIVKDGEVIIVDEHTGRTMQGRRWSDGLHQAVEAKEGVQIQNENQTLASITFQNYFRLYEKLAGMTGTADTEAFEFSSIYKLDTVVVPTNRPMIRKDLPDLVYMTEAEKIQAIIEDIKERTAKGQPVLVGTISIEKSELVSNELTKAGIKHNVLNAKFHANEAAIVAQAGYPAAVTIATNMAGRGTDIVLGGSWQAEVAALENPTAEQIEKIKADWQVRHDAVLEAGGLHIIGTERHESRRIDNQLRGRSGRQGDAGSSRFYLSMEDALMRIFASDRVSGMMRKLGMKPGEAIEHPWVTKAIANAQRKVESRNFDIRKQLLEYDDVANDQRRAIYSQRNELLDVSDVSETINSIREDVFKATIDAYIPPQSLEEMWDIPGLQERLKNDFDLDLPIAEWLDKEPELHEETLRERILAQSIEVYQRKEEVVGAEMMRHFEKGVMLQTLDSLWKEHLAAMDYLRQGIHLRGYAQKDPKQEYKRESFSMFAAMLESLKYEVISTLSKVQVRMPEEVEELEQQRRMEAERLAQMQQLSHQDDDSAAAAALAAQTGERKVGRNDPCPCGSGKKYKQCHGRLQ
Assay [5] concerns the target T1, BsSecA. The assay is described as follows: biochemical. The assay is classed as biochemical, B. subtilis. The note with it: Example 1.
The target of the next assay is EcSecA N68 (Escherichia coli, UniProt P10408). Description: biochemical. To be noted: Example 1, fluorescein analogs; read-out: IC50, EcN68 SecA ATPase (unregulated ATPase). The assay is classed as biochemical, E. coli.
Another assay deals with F1F0-proton ATPase (Escherichia coli, UniProt P0ABB0+P0ABB4). The assay is described as follows: Proton ATPase activity, reconstituted liposomes. The assay is classed as biochemical, E. coli. The procedure:
The N-terminal catalytic domain of SecA from E. coli (EcN68) was overexpressed from pIMBB28. EcN68 was used for the early and initial screening because it has higher intrinsic activity and is more sensitive to inhibitors. […] SecA proteins were purified as previously described. F1F0-proton ATPase-enriched membrane of E. coli strain KY7485 was prepared as described in the literature. F1F0-proton ATPase was partially purified by sucrose-gradient fractionation and then reconstituted into liposomes by dialysis. Non-radiolabeled and [^35S]-labeled proOmpA were purified as previously described. SecA-depleted BA13 membrane vesicles were prepared as described in the literature,[32] and washed with 6M urea to reduce endogenous ATPase activity.

Assay [6] relates to EcSecA. The assay is classed as biochemical, E. coli.
Assay [7] has as its target T2, EcSecA. To be noted: read-out: IC50, translocation ATPase activity of EcSecA; Example 1.
Target sequence in this assay (P0AG99 whole entry): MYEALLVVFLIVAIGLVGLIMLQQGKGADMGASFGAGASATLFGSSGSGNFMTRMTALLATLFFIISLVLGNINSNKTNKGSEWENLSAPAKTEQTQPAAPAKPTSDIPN
Target sequence in this assay (P10408 whole entry): as the sequence (P10408 whole entry) above
Target sequence in this assay (P0AGA2 whole entry, further chain): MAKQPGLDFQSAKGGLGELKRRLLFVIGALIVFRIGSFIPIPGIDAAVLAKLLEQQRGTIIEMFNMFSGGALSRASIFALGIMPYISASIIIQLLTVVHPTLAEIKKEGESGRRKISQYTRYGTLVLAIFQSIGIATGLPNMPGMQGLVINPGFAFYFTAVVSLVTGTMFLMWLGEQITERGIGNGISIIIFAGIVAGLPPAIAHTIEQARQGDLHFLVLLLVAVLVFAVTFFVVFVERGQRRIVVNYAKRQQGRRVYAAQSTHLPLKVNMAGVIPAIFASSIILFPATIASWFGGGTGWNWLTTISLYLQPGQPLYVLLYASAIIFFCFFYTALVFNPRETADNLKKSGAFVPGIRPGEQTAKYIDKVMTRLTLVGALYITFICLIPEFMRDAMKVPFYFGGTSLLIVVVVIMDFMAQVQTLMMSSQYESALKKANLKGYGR
Target sequence in this assay (P0AG96 whole entry, further chain): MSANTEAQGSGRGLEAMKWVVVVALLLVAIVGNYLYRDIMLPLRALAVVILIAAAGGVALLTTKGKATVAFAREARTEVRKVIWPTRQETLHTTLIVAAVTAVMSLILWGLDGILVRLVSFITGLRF
Assay [8] deals with T2, EcSecA. To be noted: read-out: IC50, in vitro protein translocation of proOmpA; Example 1.
Target sequence in this assay (P0AG99 whole entry): as the sequence (P0AG99 whole entry) above
Target sequence in this assay (P10408 whole entry): as the sequence (P10408 whole entry) above
Target sequence in this assay (P0AGA2 whole entry, further chain): as the sequence (P0AGA2 whole entry, further chain) above
Target sequence in this assay (P0AG96 whole entry, further chain): as the sequence (P0AG96 whole entry, further chain) above
Assay [9] concerns the target T2, EcSecA. To be noted: read-out: IC50, membrane ATPase activity of EcSecA; Example 1.
Target sequence in this assay (P0AG99 whole entry): as the sequence (P0AG99 whole entry) above
Target sequence in this assay (P10408 whole entry): as the sequence (P10408 whole entry) above
Target sequence in this assay (P0AGA2 whole entry, further chain): as the sequence (P0AGA2 whole entry, further chain) above
Target sequence in this assay (P0AG96 whole entry, further chain): as the sequence (P0AG96 whole entry, further chain) above
A further assay has as its target PaSecA (Pseudomonas aeruginosa, UniProt Q9LCT3). Description: cell-based. The assay is classed as cell-based.
For a further assay, the target named is SpSecA (Streptococcus pyogenes, UniProt Q99Y96). The assay is classed as cell-based. To be noted: read-out: IC50, Ion Channel activity, SpSecA; Table 1.
The next assay has as its system B. anthracis Sterne. The assay is described as follows: microbe, parasite or virus in culture. To be noted: Bacillus anthracis, read-out: Bacteriostatic MIC95, B. anthracis Sterne. The assay is classed as cell-based.
In the next assay the test system is S. pyogenes, MGAS5005. Description: MIC95, S. pyogenes MGAS5005. The assay is classed as cell-based. To be noted: Streptococcus pyogenes, MGAS5005, read-out: MIC95, S. pyogenes MGAS5005.
Assay [10] deals with B. subtilis 168. The assay is described as follows: Bactericidal effect assay, B. subtilis 168. The assay is classed as cell-based.
The nature of assay [11]: Bactericidal effect in the dark and under light (photooxidation). The assay is classed as cell-based.
A further assay deals with S. aureus Mu3. Description: Bacteriostatic effect, S. aureus Mu3. The note with it: Staphylococcus aureus, MU3, read-out: Bacteriostatic effect, MIC, S. aureus Mu3.
Another assay concerns S. aureus Mu50. Description: Bacteriostatic effect, S. aureus Mu50. The note with it: Staphylococcus aureus.
A further assay has as its system S. aureus 6538. Description: Bacteriostatic effect, S. aureus 6538. To be noted: Staphylococcus aureus, 6538, read-out: Bacteriostatic effect, MIC, S. aureus 6538.
Another assay has as its system S. aureus N315. The assay is described as follows: Bacteriostatic effect, S. aureus N315. To be noted: Staphylococcus aureus, N315, read-out: Bacteriostatic effect, MIC, S. aureus N315.
For the next assay, the target named is BsSecA2. To be noted: read-out: IC50, Intrinsic ATPase, BsSecA2; Table 1.
For another assay, the system named is S. aureus 8325-4. The assay is described as follows: Bacteriostatic effect, S. aureus 8325-4 (WT). To be noted: Staphylococcus aureus, 83254, read-out: Bacteriostatic effect, MIC, WT 8325-4.
The next assay concerns the target T3, SaSecA2 (Staphylococcus aureus, UniProt Q2FUW6).
T3 sequence (Q2FUW6 1-796): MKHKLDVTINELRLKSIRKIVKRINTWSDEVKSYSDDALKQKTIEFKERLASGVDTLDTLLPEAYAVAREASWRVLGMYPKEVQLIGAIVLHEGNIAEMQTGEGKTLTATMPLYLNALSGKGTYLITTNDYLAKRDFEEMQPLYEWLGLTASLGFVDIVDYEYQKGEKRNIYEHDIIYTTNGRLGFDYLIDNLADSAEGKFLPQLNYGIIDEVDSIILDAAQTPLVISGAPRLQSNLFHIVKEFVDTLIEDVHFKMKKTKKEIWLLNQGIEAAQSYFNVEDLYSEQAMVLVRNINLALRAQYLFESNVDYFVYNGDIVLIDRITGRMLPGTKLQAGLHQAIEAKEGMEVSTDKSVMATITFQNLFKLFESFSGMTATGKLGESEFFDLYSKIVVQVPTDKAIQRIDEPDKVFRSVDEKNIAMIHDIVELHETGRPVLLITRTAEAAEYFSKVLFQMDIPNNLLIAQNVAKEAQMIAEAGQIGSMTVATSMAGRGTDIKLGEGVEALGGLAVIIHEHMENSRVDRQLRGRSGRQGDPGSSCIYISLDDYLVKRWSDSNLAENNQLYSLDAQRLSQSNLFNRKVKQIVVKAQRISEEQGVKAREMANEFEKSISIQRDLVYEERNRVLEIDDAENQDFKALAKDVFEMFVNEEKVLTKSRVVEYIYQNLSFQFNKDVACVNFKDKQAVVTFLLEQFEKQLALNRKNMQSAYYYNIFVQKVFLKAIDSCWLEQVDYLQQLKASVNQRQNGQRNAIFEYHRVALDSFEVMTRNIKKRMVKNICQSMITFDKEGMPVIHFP
The assay is described as follows: ATPase activity assay (malachite green), SaSecA2.

The subject of assay [12] is SecA (S. pyogenes, S. aureus, and E. coli). Description: Oocyte assay, inhibition of SecA. To be noted: read-out: IC50, inhibiting SecA in the oocyte assay.

pIC50: −log10 of the molar value. In brackets after ≈: the same amount, converted by molar mass. Read-outs that look alike come from different tables or passages of the source.

T1 sequence (P28366 whole entry): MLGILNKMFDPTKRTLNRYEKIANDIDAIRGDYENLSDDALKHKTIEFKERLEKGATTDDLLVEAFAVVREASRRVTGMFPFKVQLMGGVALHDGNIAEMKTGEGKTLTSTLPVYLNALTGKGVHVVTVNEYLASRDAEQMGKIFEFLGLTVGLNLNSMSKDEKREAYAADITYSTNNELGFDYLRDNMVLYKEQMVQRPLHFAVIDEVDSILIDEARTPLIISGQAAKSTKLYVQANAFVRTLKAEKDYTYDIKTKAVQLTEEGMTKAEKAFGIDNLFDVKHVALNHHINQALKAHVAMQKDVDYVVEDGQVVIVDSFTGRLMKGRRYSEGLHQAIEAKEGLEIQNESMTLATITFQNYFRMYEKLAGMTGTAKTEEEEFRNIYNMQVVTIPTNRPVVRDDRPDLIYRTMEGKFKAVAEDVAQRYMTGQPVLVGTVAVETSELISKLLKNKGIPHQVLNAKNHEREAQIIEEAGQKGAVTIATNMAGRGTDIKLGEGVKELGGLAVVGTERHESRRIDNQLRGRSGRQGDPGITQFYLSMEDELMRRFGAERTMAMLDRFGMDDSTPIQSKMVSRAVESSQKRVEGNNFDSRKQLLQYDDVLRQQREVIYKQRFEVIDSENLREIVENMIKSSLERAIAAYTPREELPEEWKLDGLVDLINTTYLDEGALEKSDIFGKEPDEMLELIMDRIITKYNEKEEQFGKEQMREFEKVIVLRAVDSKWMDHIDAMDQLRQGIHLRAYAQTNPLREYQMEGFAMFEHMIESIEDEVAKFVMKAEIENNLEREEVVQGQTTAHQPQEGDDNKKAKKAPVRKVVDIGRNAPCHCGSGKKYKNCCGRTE
PaSecA, sequence (Q9LCT3 whole entry): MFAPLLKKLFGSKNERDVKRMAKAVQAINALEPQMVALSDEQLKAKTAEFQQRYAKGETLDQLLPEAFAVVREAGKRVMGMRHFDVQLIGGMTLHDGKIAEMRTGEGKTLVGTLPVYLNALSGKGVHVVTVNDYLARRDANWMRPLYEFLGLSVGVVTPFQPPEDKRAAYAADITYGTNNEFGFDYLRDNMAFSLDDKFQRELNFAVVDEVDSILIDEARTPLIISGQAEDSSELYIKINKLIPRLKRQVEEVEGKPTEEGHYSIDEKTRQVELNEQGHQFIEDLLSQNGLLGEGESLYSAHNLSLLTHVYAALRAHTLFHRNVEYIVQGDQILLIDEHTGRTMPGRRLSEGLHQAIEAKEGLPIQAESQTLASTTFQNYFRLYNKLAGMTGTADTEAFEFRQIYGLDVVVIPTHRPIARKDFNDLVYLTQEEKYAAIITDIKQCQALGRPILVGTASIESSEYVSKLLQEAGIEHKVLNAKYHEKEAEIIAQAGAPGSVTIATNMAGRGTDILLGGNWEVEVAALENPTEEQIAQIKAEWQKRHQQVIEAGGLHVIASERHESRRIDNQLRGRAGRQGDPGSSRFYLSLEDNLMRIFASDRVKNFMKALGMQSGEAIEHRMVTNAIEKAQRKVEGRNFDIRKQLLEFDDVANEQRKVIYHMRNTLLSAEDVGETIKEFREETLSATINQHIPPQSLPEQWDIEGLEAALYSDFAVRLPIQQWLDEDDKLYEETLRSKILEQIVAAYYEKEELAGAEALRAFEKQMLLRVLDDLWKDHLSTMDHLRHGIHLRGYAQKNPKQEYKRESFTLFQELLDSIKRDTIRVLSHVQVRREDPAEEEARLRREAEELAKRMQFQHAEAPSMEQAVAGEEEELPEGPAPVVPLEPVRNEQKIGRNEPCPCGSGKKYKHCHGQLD
EcSecA N68, sequence (P10408 1-610): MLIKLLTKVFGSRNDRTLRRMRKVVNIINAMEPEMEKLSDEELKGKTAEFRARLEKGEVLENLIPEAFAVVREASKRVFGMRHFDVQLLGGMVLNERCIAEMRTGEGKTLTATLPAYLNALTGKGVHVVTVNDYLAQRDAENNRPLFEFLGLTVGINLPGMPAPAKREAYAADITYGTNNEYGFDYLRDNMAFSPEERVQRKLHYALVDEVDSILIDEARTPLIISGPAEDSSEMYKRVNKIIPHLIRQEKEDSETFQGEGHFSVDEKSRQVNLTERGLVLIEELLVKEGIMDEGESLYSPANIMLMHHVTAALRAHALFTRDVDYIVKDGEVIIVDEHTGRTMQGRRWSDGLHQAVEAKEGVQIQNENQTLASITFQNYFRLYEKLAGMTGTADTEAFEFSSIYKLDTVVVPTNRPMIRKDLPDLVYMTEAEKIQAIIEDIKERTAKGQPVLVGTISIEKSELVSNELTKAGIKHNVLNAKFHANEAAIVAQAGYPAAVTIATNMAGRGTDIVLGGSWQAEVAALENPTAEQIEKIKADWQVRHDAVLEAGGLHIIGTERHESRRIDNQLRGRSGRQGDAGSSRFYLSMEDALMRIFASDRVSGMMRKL

For `Oc1ccc2c(c1)Oc1cc(O)ccc1C2C1CCCCC1` [Compound 22d, 9-Cyclohexyl-9H-xanthene-3,6-diol], the values for the pIC50 against BsSecA [1] and at EcSecA [4] were 5.18 and 5.55, respectively. Besides, the MIC in the assay on B. subtilis 168 [2] came out at 22 µM (≈ 6.52 µg/mL). In the assay on EcSecA [3], the “Potency against EcSecA over BsSecA, channel activity” value is “about 2 fold”.
Take `O.O=C([O-])c1ccccc1-c1c2cc(I)c(=O)c(I)c-2oc2c(I)c([O-])c(I)cc12.[Na+].[Na+]` [EB, Erythrosin B]: the “Effect on the intrinsic ATPase activity of BsSecA” value on BsSecA [5] was “inhibitory effects”. Besides, the negative logarithm of the IC50 (pIC50) at EcSecA N68 was 5.70; at F1F0-proton ATPase (Example 1, read-out: IC50 against F1F0-proton ATPase) it was around 4.52; at EcSecA [7], 4.70 to 5.00; at EcSecA [8], 5.40; at EcSecA [9], 4.70 to 5.00. Besides, the “Mode of inhibition against ATP” value in the assay with EcSecA [6] (at low ATP concentrations) is given as “competitive inhibitors”.
With `O=C(O)c1c(Cl)c(Cl)c(Cl)c(Cl)c1-c1c2cc(I)c(=O)c(I)c-2oc2c(I)c(O)c(I)cc12` [RB, Rose Bengal], on BsSecA [5], the “Effect on the intrinsic ATPase activity of BsSecA” value was “inhibitory effects”. For the same compound, the “Inhibition kinetics, channel activity, PaSecA-liposomes” value at PaSecA (FIG. 3C) was “non-competitive inhibition”. In addition, the pIC50 is 6.52 against PaSecA (IC50, Ion Channel activity, PASecA, Table 1); 5.70 at PaSecA (Rose Bengal IC50, channel activity, PaSecA, +SecYEG + SecDF•C); 5.29 against PaSecA (Rose Bengal IC50, channel activity, PaSecA, BA13, BA13 (first value of BA13/Re-13)); 5.96 on PaSecA (Rose Bengal IC50, channel activity, PaSecA, Liposome + SecYEG); 6.52 at PaSecA (Rose Bengal IC50, channel activity, PaSecA, Liposomes); 6.52 at PaSecA (Rose Bengal IC50, channel activity, PaSecA, Re-13, Re-13 (second value of BA13/Re-13)). Moreover, the negative logarithm of the IC50 (pIC50) at SpSecA was 6.05; against F1F0-proton ATPase, around 5.00; on BsSecA2, 4.82; at SaSecA2 (IC50, ATPase activity, SaSecA2, Table 7), 5.60; at SaSecA2 (IC50, Intrinsic ATPase, SaSecA2, Table 1) it was 6.00; in assay [12], 6.40. Besides, the MIC with B. anthracis Sterne came to 12.2 µg/mL (≈ 12.5 µM); in the assay on S. pyogenes, MGAS5005, 6.25 µM (≈ 6.09 µg/mL); against B. subtilis 168 [2], 100 µM (≈ 97.4 µg/mL); in the assay on S. aureus Mu3, 38.2 µg/mL (≈ 39.2 µM); in the assay with S. aureus Mu50 (MU50, read-out: Bacteriostatic MIC95, S. aureus Mu50), 40.7 µg/mL (≈ 41.8 µM); in the assay on S. aureus Mu50 (MU50, read-out: Bacteriostatic effect MIC, S. aureus Mu50), 50.8 µg/mL (≈ 52.2 µM). The MIC with S. aureus Mu50 (MU50, read-out: Bacteriostatic effect, MIC, S. aureus Mu50) stood at 50.8 µg/mL (≈ 52.2 µM); in the assay on S. aureus 6538, 38.2 µg/mL (≈ 39.2 µM); with S. aureus N315 it was 19.1 µg/mL (≈ 19.6 µM); with S. aureus 8325-4, 13.2 µg/mL (≈ 13.6 µM). Further, the “Bactericidal effect, kill of B. subtilis 168” value in the assay with B. subtilis 168 [10] (20 μM, one hour, FIG. 2) was “little effect”. For the same compound, the “Decrease of cell survival (CFU)” value in the assay on B. subtilis 168 [10] (100 μM, one-hour treatment) is recorded as around 8 log units. In addition, the “Bactericidal effect in the dark” value in assay [11] (dark) is “little bactericidal effect”. For the same compound, the “Effect of light on the bactericidal effect” value in assay [11] (under light versus dark) is reported as “dramatically increased”. In addition, the “Mode of inhibition against ATP” value in the assay with EcSecA [6] (at high ATP concentrations) was “competitive inhibition”.
